Values of other authors as cited in patent US8257918B2, “Intelligent nanomedicine integrating diagnosis and therapy” (The Regents of the University of California, priority 2004, dated 2012).

How the values were obtained:
tumor = conditions: comparison with doxorubicin

Row | Structure (SMILES) | anti-tumor efficiency relative to doxorubicin (tumor) | cumulative doses that engender a substantial risk of cardiotoxicity
1 | COc1cccc2c1C(=O)c1c(O)c3c(c(O)c1C2=O)C[C@@](O)(C(=O)CO)C[C@@H]3O[C@H]1C[C@H](NC(=O)[C@@H](N)CC(C)C)[C@H](O)[C@H](C)O1 [Leu-Dox, N-1-leucyl-doxorubucin] | more efficient anti-tumor agents than doxorubicin | 
2 | COc1cccc2c1C(=O)c1c(O)c3c(c(O)c1C2=O)C[C@@](O)(C(=O)CO)C[C@@H]3O[C@H]1C[C@H](N)[C@H](O)[C@H](C)O1 [doxorubicin] |  | exceed 550 mg/m^2
